{"source": "patent US6242482A", "about": "“Prostaglandin compounds and derivatives thereof, compositions containing the same and method of using the same for the treatment of congestive heart failure” (priority 2000, dated 2001)", "key": {"[1]": {"tested_on": "Human Platelet Aggregation (collagen-induced)", "test": "Anti-aggregatory response, 1 min incubation with PRP, collagen-induced (Example 4)", "format": "cell-based", "conditions": "1 min with PRP; for Platelet Aggregation (mean): collagen 1 μg/ml", "protocol": "(§1) Blood from healthy human volunteers who had not taken any medicine for at least 14 days was collected by venopuncture into 3.15% (w/v) tri-sodium citrate (9:1 v/v). The blood was centrifuged at 800 g for 15 minutes to produce PRP. The PRP was further centrifuged at 12,000 g for 1 minute to produce PPP.\n(§2) Platelet aggregation was measured using a dual channel Payton aggregometer calibrated with PRP (0%) and PPP (100%) with respect to the degree of light transmission. Aliquots of PRP (500 μl) were added to siliconized cuvettes, stirred (1000 revs/min) and warmed to 37° C. The platelets were incubated for 1 minute to establish a stable baseline prior to testing. A submaximal concentration of the aggregating agent collagen (1 μg/ml) was added to the PRP and the platelet aggregation was monitored as the increase in light transmission observed over a 4 minute period.\nThe percent inhibition of the platelet aggregation was calculated using the peak increase in light transmission observed over the 4 minute period following the addition of collagen, as compared to that of the control. This experiment was repeated using PRP from at least three human volunteers."}, "[2]": {"tested_on": "Human Platelet Aggregation (collagen-induced)", "test": "Anti-aggregatory response after incubation with human PPP (Example 4)", "format": "cell-based", "protocol": "as §1, §2\nAfter the incubation period, a 50 μl aliquot of the aqueous vehicle with the corresponding sample compound was added to fresh PRP (450 μl) for determination of anti-aggregatory activity following challenge with collagen. This experiment was repeated using PPP from at least three human volunteers. […] The data in both Tables 2 and 3 are shown as the mean and the standard error of n number of donors."}, "[3]": {"tested_on": "U44069-induced pulmonary hypertension", "test": "Effects on pulmonary vascular hypertension in sheep in vivo (Example 16)", "conditions": "FIG. 5", "description": "Each sheep was monitored for measurement of pulmonary arterial pressure (PPA), left atrial pressure (PLA), systemic arterial pressure (PSA), cardiac output (CO), and heart rate (HR). Plasma samples were taken from the sheep subjects to measure drug levels within the blood throughout the experiment. The experiment began upon intravenously infusing a known pulmonary arterial hypertension inducer in a customary manner. The rate of inducement was adjusted to cause the pulmonary vascular resistance (PVR) to increase 3 to 4 times that of the initial baseline PVR. PVR is calculated as the difference between PPA and PLA, divided by the CO. After a stabilization period, a sample of a present prostaglandin compound was administered via a surgically prepared tracheotomy using a MEDICATOR® aerosol drug delivery system (Healthline Medical Inc., Baldwin Park, Calif.), or via intravenous infusion."}}}
{"compound": "CCCCC[C@H](O)CC[C@@H]1[C@H]2Cc3cccc(OCC(=O)O)c3C[C@H]2C[C@H]1O", "note": "[Compound X]", "values": [{"measurement": "Platelet Aggregation (mean)", "setting": "[1]; 1 ng/ml final", "result": "101 % of Control"}, {"measurement": "Platelet Aggregation (mean)", "setting": "[1]; 3 ng/ml final", "result": "98 % of Control"}, {"measurement": "Platelet Aggregation (mean)", "setting": "[1]; 10 ng/ml final", "result": "60 % of Control"}, {"measurement": "Platelet Aggregation (mean)", "setting": "[1]; 30 ng/ml final", "result": "1 % of Control"}, {"measurement": "Platelet Aggregation (mean)", "setting": "[1]; 100 ng/ml final", "result": "1 % of Control"}, {"measurement": "inhibition of aggregation response at highest concentrations", "setting": "[1]; Compound X 30 and 100 ng/ml, Compound 1 3 mg/ml, Compound 3 10 mg/ml", "result": "completely inhibited the aggregation response"}, {"measurement": "concentration inhibiting aggregation by 50% (ID50)", "setting": "[1]; collagen", "result": 0.02, "unit": "µg/mL"}, {"measurement": "inhibition of platelet aggregation, concentration dependence", "setting": "[1]; collagen", "result": "concentration-dependentinhibition of collagen-induced platelet aggregation"}, {"measurement": "Platelet Aggregation (mean)", "setting": "[2]; 3 ng/ml final, 1 Hour in human PPP", "result": "100 % of Control"}, {"measurement": "Platelet Aggregation (mean)", "setting": "[2]; 3 ng/ml final, 4 Hours in human PPP", "result": "91 % of Control"}, {"measurement": "Platelet Aggregation (mean)", "setting": "[2]; 3 ng/ml final, 15 Minutes in human PPP", "result": "101 % of Control"}, {"measurement": "Platelet Aggregation (mean)", "setting": "[2]; 30 ng/ml final, 1 Hour in human PPP", "result": "1 % of Control"}, {"measurement": "Platelet Aggregation (mean)", "setting": "[2]; 30 ng/ml final, 4 Hours in human PPP", "result": "1 % of Control"}, {"measurement": "Platelet Aggregation (mean)", "setting": "[2]; 30 ng/ml final, 15 Minutes in human PPP", "result": "1 % of Control"}, {"measurement": "effect of incubation with PPP on anti-platelet activity", "setting": "[2]; 15 minutes, 1 hour and 4 hours", "result": "no significant effect on the anti-platelet activity"}, {"measurement": "PPA-PLA before administration (normalized)", "setting": "[3]; 1 μg/kg aerosol over 15 minutes", "result": "about 11.25 cmH2 O"}, {"measurement": "PPA-PLA after administration (normalized)", "setting": "[3]; 1 μg/kg aerosol, 10 minutes after termination", "result": "about 5 cmH2 O"}]}
